Test results taken from PMC9585897 (Peptides, 2022).
“Also recorded” adds a separate entry of the source. Non-standard residues stand in square brackets, D forms with d. Residues, ends and D or L forms follow the SMILES beside them. Ahx = NCCCCCC(=O)O

What was measured:
[1] = biological target: SARS-CoV-2 Spike-ACE2 interaction (Severe acute respiratory syndrome coronavirus 2, UniProt P0DTC2); experiment: ELISA, SARS-CoV-2 Spike-ACE2 Interaction Inhibitor Screening Assay Kit; format: biochemical
[2] = system: rCoV2-RBD (His-Spike S1 Protein, 13–685 aa); format: binding, SARS-CoV-2

Molecule	IC50 [1] [nM]	Competition with ACE2 for binding to CoV2-RBD (in words) ([1]; approximately 13.48 μM of ACE2, ELISA)	Inhibition of the Spike-ACE2 interaction (in words) ([1]; competitive ELISA, BP19 1 to 128 μM in triplicates)	Binding of CoV2-RBD, sliding window array (in words) [2]
CC[C@H](C)[C@H](NC(=O)[C@H](Cc1ccccc1)NC(=O)[C@H](CCCCN)NC(=O)[C@H](CC(=O)O)NC(=O)[C@H](CC(C)C)NC(=O)[C@H](Cc1ccccc1)NC(=O)[C@@H](NC(=O)[C@H](CCCCN)NC(=O)[C@H](C)NC(=O)[C@H](CCC(N)=O)NC(=O)[C@H](CCC(=O)O)NC(=O)[C@H](CCC(=O)O)NC(=O)[C@@H](NC(=O)[C@@H](NC(=O)[C@H](CO)NC(=O)[C@H](CCC(N)=O)NC(=O)[C@H](C)NC(=O)[C@H](C)NC(=O)[C@@H](NC(=O)[C@@H](NC(=O)[C@H](C)NC(=O)[C@@H](NC(=O)[C@H](CC(C)C)NC(=O)[C@@H](N)CO)C(C)C)C(C)C)[C@@H](C)O)[C@@H](C)O)[C@@H](C)CC)[C@@H](C)O)C(=O)NCCCCCC(=O)N[C@@H](Cc1c[nH]c2ccccc12)C(N)=O [BP19] (H-SLVAVTAAQSTIEEQAKTFLDKFI[Ahx]W-NH2; N-terminus assumed)	2080 ± 380	able to outcompete the natural ACE2 at lower than equimolar concentrations; also recorded: outcompeted 13.48 μM of ACE2 for binding to the CoV2-RBD	dose-responsive; also recorded: inhibitory of the Spike-ACE2 interaction in vitro	–
SLVAVTAAQSTIEEQAKTFLDKFN [9 ^N]	–	–	–	bound the CoV2-RBD the strongest; also recorded: bound the CoV2-RBD with the greatest intensity
